The record followed here is patent publication US12157730B2, “Heteroaryl derivative, method for producing same, and pharmaceutical composition comprising same as effective component” (VORONOI INC., priority 2019, dated 2024).

This experiment addresses T1, Ba/F3 cell EGFR Exon20 ins NPH (Homo sapiens, UniProt P00533, INS773NPH).
T1 construct: expressed in transfected cells; host or cells: Ba/F3
Put plainly: Ba/F3 cell proliferation suppression, EGFR Exon20 ins NPH. Format: cell-based. The conditions noted are these: GI50 class; Ba/F3 cell line with NPH inserted at Exon20 of EGFR; 72 hours. In a few lines:
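After 72 h compound exposure (twelve 3-fold steps, 0.3 nM–50 um final), live cells were measured by CellTiter-Glo luminescence and growth expressed as % of control to derive GI50. Cells were seeded at 3000–5000 per well a day earlier; Ba/F3 medium contained IL-3; three repeats.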
Regarding `C=CC(=O)Nc1cc(Nc2cc(N3OCC[C@@H]3c3cccc(C#N)c3)ncn2)c(OC)cc1N1CCC(N2CCN(CC)CC2)CC1` [compound 399, N-(5-((6-((R)-3-(3-cyanophenyl)isoxazolidine-2-yl)pyrimidine-4-yl)amino)-2-(4-(4-ethylpiperazine-1-yl)piperidine-1-yl)-4-methoxyphenyl) acrylamide], the “Ba/F3 (NPH) Activity” value was “B (50 nM ≤ GI50 < 500 nM)”. Then `C=CC(=O)Nc1cc(Nc2cc(N3OCC[C@@H]3c3cccc(C)c3F)ncn2)c(OC)cc1N1CCC(N2CC[C@H](N(C)C)C2)CC1` [compound 910, N-(2-(4-((S)-3-(dimethylamino)pyrolidine-1-yl)piperidine-1-yl)-5-((6-((R)-3-(2-fluoro-3-methylphenyl)isoxazolidine-2-yl)pyrimidine-4-yl)amino)-4-methoxyphenyl) acrylamide], with “A (GI50 < 50 nM)”. For the compound `C=CC(=O)Nc1cc(Nc2cc(N3OCC[C@@H]3c3ccc(Cl)c(Cl)c3)ncn2)c(OC)cc1N1CCC(N2CCN(C3CC3)CC2)CC1` [compound 932, N-(2-(4-(4-cyclopropylpiperazine-1-yl)piperidine-1-yl)-5-((6-((R)-3-(3,4-dichlorophenyl)isoxazolidine-2-yl)pyrimidine-4-yl)amino)-4-methoxyphenyl) acrylamide], the “Ba/F3 (NPH) Activity” value is “B (50 nM ≤ GI50 < 500 nM)”. Then `C=CC(=O)Nc1cc(Nc2cc(N3OCC[C@@H]3c3ccc(F)c(Cl)c3)ncn2)c(OC)cc1N1CCC(N2CCN(C)CC2)CC1` [compound 719, N-(5-((6-((R)-3-(3-chloro-4-fluorophenyl)isoxazolidine-2-yl)pyrimidine-4-yl)amino)-4-methoxy-2-(4-(4-methylpiperazine-1-yl)piperidine-1-yl)phenyl) acrylamide], with “A (GI50 < 50 nM)”; and `C=CC(=O)Nc1cc(Nc2cc(N3OCC[C@@H]3c3cccc(Cl)c3Cl)ncn2)c(OC)cc1N1CCN(CC)CC1` [compound 480, N-(5-((6-((R)-3-(2,3-dichlorophenyl)isoxazolidine-2-yl)pyrimidine-4-yl)amino)-2-(4-ethylpiperazine-1-yl)-4-methoxyphenyl) acrylamide], with “A (GI50 < 50 nM)”; and `C=CC(=O)Nc1cc(Nc2cc(N3OCC[C@@H]3c3ccc(F)cc3F)ncn2)c(OC)cc1N1CCN(C2CC2)[C@@H](C)C1` [compound 479, N-(2-((S)-4-cyclopropyl-3-methylpiperazine-1-yl)-5-((6-((R)-3-(2,4-difluorophenyl)isoxazolidine-2-yl)pyrimidine-4-yl)amino)-4-methoxyphenyl) acrylamide], with “A (GI50 < 50 nM)”. On to `C=CC(=O)Nc1cc(Nc2cc(N3OCC[C@@H]3c3cccc(C(F)(F)F)c3)ncn2)c(OC)cc1N1CCC(N2CCN(C3CC3)CC2)CC1` [Example 148, N-(2-(4-(4-cyclopropylpiperazine-1-yl)piperidine-1-yl)-4-methoxy-5-((6-((R)-3-(3-(trifluoromethyl)phenyl)isoxazolidine-2-yl)pyrimidine-4-yl)amino)phenyl)acrylamide], for which the “Ba/F3 (NPH) Activity” value is recorded as “A (GI50 < 50 nM)”.

Turning to `C=CC(=O)Nc1cc(Nc2cc(N3OCC[C@@H]3c3ccc(C)nc3)ncn2)c(OC)cc1N1CCN(C)CC1` [Example 44, N-(4-methoxy-2-(4-methylpiperazine-1-yl)-5-((6-((R)-3-(6-methylpyridine-3-yl)isoxazolidine-2-yl)pyrimidine-4-yl)amino)phenyl) acrylamide], the “Ba/F3 (NPH) Activity” value is recorded as “B (50 nM ≤ GI50 < 500 nM)”. As for `C=CC(=O)Nc1cc(Nc2cc(N3OCC[C@@H]3c3cc(F)cc(F)c3)ncn2)c(OC)cc1N1CCC(N2CC3(COC3)C2)CC1` [Example 103, N-(2-(4-(2-oxa-6-azaspiro[3.3]heptane-6-yl)piperidine-1-yl)-5-((6-((R)-3-(3,5-difluorophenyl)isoxazolidine-2-yl)pyrimidine-4-yl)amino)-4-methoxyphenyl) acrylamide], the “Ba/F3 (NPH) Activity” value was “A (GI50 < 50 nM)”. Then `C=CC(=O)Nc1cc(Nc2cc(N3OCC[C@@H]3c3cc(F)cc(Cl)c3)ncn2)c(OC)cc1N1CCC(N2CCO[C@@H](C)C2)CC1` [compound 595, N-(5-((6-((R)-3-(3-chloro-5-fluorophenyl)isoxazolidine-2-yl)pyrimidine-4-yl)amino)-4-methoxy-2-(4-((S)-2-methylmorpholino)piperidine-1-yl)phenyl) acrylamide], with “A (GI50 < 50 nM)”; and `C=CC(=O)Nc1cc(Nc2cc(N3OCC[C@@H]3c3cccc(F)c3F)ncn2)c(OC)cc1N1CCC(N2CCN(C3CC3)CC2)CC1` [Example 127, N-(2-(4-(4-cyclopropylpiperazine-1-yl)piperidine-1-yl)-5-((6-((R)-3-(2,3-difluorophenyl)isoxazolidine-2-yl)pyrimidine-4-yl)amino)-4-methoxyphenyl) acrylamide], with “A (GI50 < 50 nM)”.

In the case of `C=CC(=O)Nc1cc(Nc2cc(N3OCC[C@@H]3c3cc(F)cc(F)c3)ncn2)c(OC)cc1N1CCC(N2CCN(CCN(C)C)CC2)CC1` [compound 753, N-(5-((6-((R)-3-(3,5-difluorophenyl)isoxazolidine-2-yl)pyrimidine-4-yl)amino)-2-(4-(4-(2-(dimethylamino)ethyl)piperazine-1-yl)piperidine-1-yl)-4-methoxyphenyl) acrylamide], the “Ba/F3 (NPH) Activity” value is given as “A (GI50 < 50 nM)”. Then `C=CC(=O)Nc1cc(Nc2cc(N3OCC[C@@H]3c3cccc(Cl)c3Cl)ncn2)c(OC)cc1N1CCN(C2COC2)CC1` [compound 520, N-(5-((6-((R)-3-(2,3-dichlorophenyl)isoxazolidine-2-yl)pyrimidine-4-yl)amino)-4-methoxy-2-(4-(oxetane-3-yl)piperazine-1-yl)phenyl) acrylamide], with “A (GI50 < 50 nM)”; and `C=CC(=O)Nc1cc(Nc2cc(N3OCC[C@@H]3c3cccc(Cl)c3)ncn2)c(OC)cc1N1CCC(N2C[C@H]3C[C@@H]2CO3)CC1` [compound 472, N-(2-(4-((1R,4R)-2-oxa-5-azabicyclo[2.2.1]heptane-5-yl)piperidine-1-yl)-5-((6-((R)-3-(3-chlorophenyl)isoxazolidine-2-yl)pyrimidine-4-yl)amino)-4-methoxyphenyl) acrylamide], with “A (GI50 < 50 nM)”; and `C=CC(=O)Nc1cc(Nc2cc(N3OCC[C@@H]3c3cc(F)cc(Cl)c3)ncn2)c(OC)cc1N(C)CCN(C)C` [compound 538, N-(5-((6-((R)-3-(3-chloro-5-fluorophenyl)isoxazolidine-2-yl)pyrimidine-4-yl)amino)-2-((2-(dimethylamino)ethyl)(methyl)amino)-4-methoxyphenyl)acrylamide], with “A (GI50 < 50 nM)”. For the compound `C=CC(=O)Nc1cc(Nc2cc(N3OCC[C@@H]3c3cccc(Cl)c3Cl)ncn2)c(OC)cc1N1CCC(N(C)C)CC1` [compound 476, N-(5-((6-((R)-3-(2,3-dichlorophenyl)isoxazolidine-2-yl)pyrimidine-4-yl)amino)-2-(4-(dimethylamino)piperidine-1-yl)-4-methoxyphenyl) acrylamide], the “Ba/F3 (NPH) Activity” value is recorded as “A (GI50 < 50 nM)”. `C=CC(=O)Nc1cc(Nc2cc(N3OCC[C@@H]3Cc3cc(F)cc(F)c3)ncn2)c(OC)cc1N(C)CCN(C)C` [compound 1031, N-(5-((6-((S)-3-(3,5-difluorobenzyl)isoxazolidine-2-yl)pyrimidine-4-yl)amino)-2-((2-(dimethylamino)ethyl)(methyl)amino)-4-methoxyphenyl) acrylamide]: the “Ba/F3 (NPH) Activity” value is “A (GI50 < 50 nM)”. Regarding `C=CC(=O)Nc1cc(Nc2cc(N3OCC[C@@H]3c3ccc4ccccc4c3)ncn2)c(OC)cc1N1C[C@@H](C)O[C@@H](C)C1` [compound 664, N-(2-((2S,6R)-2,6-dimethylmorpholino)-4-methoxy-5-((6-((R)-3-(naphthalene-2-yl)isoxazolidine-2-yl)pyrimidine-4-yl)amino)phenyl)acrylamide], the “Ba/F3 (NPH) Activity” value is listed as “C (500 nM ≤ GI50 < 5000 nM)”. Then `C=CC(=O)Nc1cc(Nc2cc(N3OCC[C@@H]3c3cc(F)cc(Cl)c3)ncn2)c(OC)cc1N1CCN(C)CC1` [compound 537, N-(5-((6-((R)-3-(3-chloro-5-fluorophenyl)isoxazolidine-2-yl)pyrimidine-4-yl)amino)-4-methoxy-2-(4-methylpiperazine-1-yl)phenyl)acrylamide], with “A (GI50 < 50 nM)”. For `C=CC(=O)Nc1cc(Nc2cc(N3OCC[C@@H]3Cc3cccc(F)c3C)ncn2)c(OC)cc1N1CCC(N2CCN(C3CC3)[C@@H](C)C2)CC1` [compound 1005, N-(2-(4-((S)-4-cyclopropyl-3-methylpiperazine-1-yl)piperidine-1-yl)-5-((6-((S)-3-(3-fluoro-2-methylbenzyl)isoxazolidine-2-yl)pyrimidine-4-yl)amino)-4-methoxyphenyl) acrylamide], the “Ba/F3 (NPH) Activity” value is “A (GI50 < 50 nM)”. In the case of `C=CC(=O)Nc1cc(Nc2cc(N3OCC[C@@H]3c3ccc(F)c(Cl)c3)ncn2)c(OC)cc1N1CCC(N2CCN(C(C)C)CC2)CC1` [compound 715, N-(5-((6-((R)-3-(3-chloro-4-fluorophenyl)isoxazolidine-2-yl)pyrimidine-4-yl)amino)-2-(4-(4-isopropylpiperazine-1-yl)piperidine-1-yl)-4-methoxyphenyl) acrylamide], the “Ba/F3 (NPH) Activity” value is “A (GI50 < 50 nM)”. Regarding `C=CC(=O)Nc1cc(Nc2cc(N3OCC[C@@H]3c3cc(F)cc(F)c3)ncn2)c(OC)cc1N1CCC(N2CCN(C3CCCC3)CC2)CC1` [Example 98, N-(2-(4-(4-cyclopentylpiperazine-1-yl)piperidine-1-yl)-5-((6-((R)-3-(3,5-difluorophenyl)isoxazolidine-2-yl)pyrimidine-4-yl)amino)-4-methoxyphenyl) acrylamide], the “Ba/F3 (NPH) Activity” value is listed as “A (GI50 < 50 nM)”.
